The target in one series is T1, human GLP2 receptor (Homo sapiens, UniProt O95838).
T1 construct: expressed in transfected cells; host or cells: HEK cells, BacMam virus transduction
T1 sequence (O95838 1-553): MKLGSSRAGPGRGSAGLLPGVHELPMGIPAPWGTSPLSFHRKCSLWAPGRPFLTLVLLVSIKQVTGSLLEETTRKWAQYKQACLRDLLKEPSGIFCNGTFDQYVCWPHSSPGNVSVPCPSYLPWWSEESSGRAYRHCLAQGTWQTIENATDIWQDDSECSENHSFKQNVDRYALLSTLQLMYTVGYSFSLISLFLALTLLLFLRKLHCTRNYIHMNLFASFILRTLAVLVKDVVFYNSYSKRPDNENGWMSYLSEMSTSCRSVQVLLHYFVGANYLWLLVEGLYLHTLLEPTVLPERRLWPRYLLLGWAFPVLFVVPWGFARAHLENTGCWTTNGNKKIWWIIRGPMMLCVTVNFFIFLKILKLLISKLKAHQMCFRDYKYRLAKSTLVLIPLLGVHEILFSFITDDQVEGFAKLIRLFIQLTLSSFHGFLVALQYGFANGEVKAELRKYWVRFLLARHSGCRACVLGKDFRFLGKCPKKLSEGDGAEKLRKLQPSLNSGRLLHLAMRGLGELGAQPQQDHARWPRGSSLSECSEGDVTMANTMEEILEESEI
The experiment in a line: cAMP accumulation assay, functional agonism of human GLP2 receptor. The class given is cell-based. Conditions: HEK cells infected with human GLP2 receptor BacMam virus, HTRF cAMP; for Emax: HEK293, read-out: Human GLP-2R agonist cAMP Emax; for EC50: read-out: Human GLP-2R agonist cAMP pEC50 (converted). The method, boiled down:
(§1)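 HTRF cAMP read-out: HEK cells expressing GLP1 or GLP2 receptor via 24 h BacMam infection, frozen before use; agonist exposure 45 min, 37° C, HBSS + 0.5 mM IBMX; stopped with detection reagents in lysis buffer.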

In a further series the target is T2, mouse GLP2 receptor (Mus musculus, UniProt Q5IXF8).
T2 construct: expressed in transfected cells; host or cells: HEK cells, transient transfection with GeneJuice
T2 sequence (Q5IXF8 1-512): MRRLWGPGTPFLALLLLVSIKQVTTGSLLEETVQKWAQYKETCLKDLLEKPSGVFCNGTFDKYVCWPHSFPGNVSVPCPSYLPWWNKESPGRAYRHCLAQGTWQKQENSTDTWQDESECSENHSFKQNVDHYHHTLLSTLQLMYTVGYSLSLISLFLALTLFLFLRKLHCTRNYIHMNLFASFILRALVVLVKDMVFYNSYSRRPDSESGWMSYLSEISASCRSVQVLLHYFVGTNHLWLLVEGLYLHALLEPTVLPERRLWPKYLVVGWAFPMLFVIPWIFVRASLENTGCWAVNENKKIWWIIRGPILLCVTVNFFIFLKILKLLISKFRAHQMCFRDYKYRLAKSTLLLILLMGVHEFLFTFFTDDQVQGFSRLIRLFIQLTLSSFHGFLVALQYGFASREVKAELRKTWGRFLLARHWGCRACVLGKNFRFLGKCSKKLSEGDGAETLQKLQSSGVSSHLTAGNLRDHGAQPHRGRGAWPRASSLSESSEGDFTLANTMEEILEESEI
The experiment in a line: cAMP accumulation assay, functional agonism of mouse GLP2 receptor. It counts as cell-based. The method, boiled down: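 pEC50 values come from four-parameter fits of HTRF cAMP signal, read after lysis and 1 h RT incubation. Compounds were incubated 45 min at 37 °C with previously frozen, transiently transfected HEK cells (8000/well) in HBSS containing 0.5 mM IBMX.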
On the technique in general: cAMP levels reflect the balance of adenylyl cyclase and phosphodiesterase activity.

The nature of series [1]: Stability of peptides in Fasted-State Simulated Intestinal Fluid (FaSSIF). It counts as in vitro ADME. To be noted: FaSSIF with 10 mg/ml pancreatin; t=30 mins, 37° C., pH 6.5, 10 mg/ml pancreatin.
Description: Stability of peptides was tested in Fasted-State Simulated Intestinal Fluid (FaSSIF) prepared according to manufacturer's protocol (Biorelevant, art.no. FFF01, pH 6.5). […] FaSSIF was pre-incubated for 15 min at 37° C. and spiked with test and reference item working solutions. Experiments were conducted in duplicate in a non-serial manner. The total incubation volume per replicate was 150 μl. Sampling time points for test items were 0, 0.5, 2, 5, 10, 15 and 30 min. All samples and calibration standards (prepared in FaSSIF) were precipitated by addition of 300 μl precipitant (ACN / 2% acetic acid / 0.2% HFBA, (precipitation reagent, PR)) containing internal standard (ISTD) to 150 μl sample. After incubation for 1 h at room temperature all samples were centrifuged for 10 min at 2,200×g (room temperature).
Another series addresses T3, human GLP1 receptor (Homo sapiens, UniProt P43220).
T3 construct: expressed in transfected cells; host or cells: HEK cells, BacMam virus transduction
The experiment in a line: cAMP accumulation assay, functional agonism of human GLP1 receptor. The class given is cell-based. To be noted: HEK cells infected with human GLP1 receptor BacMam virus, HTRF cAMP; for Emax: HEK293, read-out: Human GLP-1R agonist cAMP Emax; for EC50: read-out: Human GLP-1R agonist cAMP pEC50 (converted). In a few lines:
as §1

The target of a further series is T4, mouse GLP1 receptor (Mus musculus, UniProt O35659).
T4 construct: expressed in transfected cells; host or cells: HEK cells, transient transfection with GeneJuice
T4 sequence (O35659 22-463): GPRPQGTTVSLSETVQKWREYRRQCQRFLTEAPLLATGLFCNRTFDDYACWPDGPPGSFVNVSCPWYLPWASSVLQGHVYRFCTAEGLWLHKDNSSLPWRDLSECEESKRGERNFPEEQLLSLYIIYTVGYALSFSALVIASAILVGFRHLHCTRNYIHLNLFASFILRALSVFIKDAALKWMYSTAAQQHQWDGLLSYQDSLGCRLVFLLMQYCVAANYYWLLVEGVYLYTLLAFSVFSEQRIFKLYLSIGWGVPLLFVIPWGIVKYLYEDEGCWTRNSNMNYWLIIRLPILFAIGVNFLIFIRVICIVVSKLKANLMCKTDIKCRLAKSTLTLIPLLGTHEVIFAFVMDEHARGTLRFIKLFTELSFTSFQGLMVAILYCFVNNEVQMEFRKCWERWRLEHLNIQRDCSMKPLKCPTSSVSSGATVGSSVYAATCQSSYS
The experiment in a line: cAMP accumulation assay, functional agonism of mouse GLP1 receptor. The class given is cell-based.

The mark [2] stands for this setting: HEK293, HEK cells transiently transfected with mouse GLP2 receptor, HTRF cAMP, read-out: Mouse GLP-2R agonist cAMP Emax.
Where [3] appears, read: HEK cells transiently transfected with mouse GLP2 receptor, HTRF cAMP, read-out: Mouse GLP-2R agonist cAMP pEC50 (converted).
Where [4] appears, read: HEK293, HEK cells transiently transfected with mouse GLP1 receptor, HTRF cAMP, read-out: Mouse GLP-1R agonist cAMP Emax.
Setting [5] is: HEK cells transiently transfected with mouse GLP1 receptor, HTRF cAMP, read-out: Mouse GLP-1R agonist cAMP pEC50 (converted).

Read-outs that look alike come from different tables or passages of the source. Positions of bridges follow the written chain, without caps; N, C: chain ends. Non-standard residues stand in square brackets, D forms with d. Residues, ends and D or L forms follow the SMILES beside them. *: point of attachment. Malonyl(2,2-Me2,histaminyl) = CC(C)(C(=O)NCCc1cnc[nH]1)C(=O)*; Ala(1H-tetrazol-5-yl) = N[C@@H](Cc1nnn[nH]1)C(=O)O; Nle = CCCC[C@H](N)C(=O)O; Aib = CC(C)(N)C(=O)O

These results are taken from patent publication US20240270809A1, “ORAL GLP RECEPTOR AGONISTS” (priority 2020, published 2024).

What is called Emax is the greatest response seen or fitted, relative to the assay's reference. In general, fraction remaining refers to what is left of the initial amount, in per cent.

T3 sequence (P43220 24-463): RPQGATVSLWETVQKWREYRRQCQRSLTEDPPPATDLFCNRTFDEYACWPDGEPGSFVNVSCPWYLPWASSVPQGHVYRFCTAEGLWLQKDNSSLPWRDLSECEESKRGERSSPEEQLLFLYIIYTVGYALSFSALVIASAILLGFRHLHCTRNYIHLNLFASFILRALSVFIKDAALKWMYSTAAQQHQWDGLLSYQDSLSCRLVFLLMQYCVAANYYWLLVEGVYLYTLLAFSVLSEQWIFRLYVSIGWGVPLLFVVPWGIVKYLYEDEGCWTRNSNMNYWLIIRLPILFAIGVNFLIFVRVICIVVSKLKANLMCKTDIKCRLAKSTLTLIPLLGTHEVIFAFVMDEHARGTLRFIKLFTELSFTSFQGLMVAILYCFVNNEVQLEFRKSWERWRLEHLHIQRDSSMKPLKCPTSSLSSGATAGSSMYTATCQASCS
Description for mouse GLP1 receptor: CAMP production upon agonist stimulation of mouse GLP2 or GLP1 receptors was assessed utilizing HiRange cAMP kit (Cisbio). In brief, HEK cells were transiently transfected for 24 hours with cDNA using GeneJuice Transfection reagent (EMD Millipore) and frozen at −80° C. for later use in the assay. […] Cells were prepared in the assay buffer (HBSS (Lonza) supplemented with 0.5 mM IBMX (Tocris)). After 45 min incubation at 37° C., the reaction was stopped by addition of the HTRF detection reagents in the lysis buffer provided in the kit. Following 1-hour incubation at RT, plates were read on Pherastar FS (BMG Labtech, Inc.) using standard HTRF settings. Dotmatics Studies software was used for calculation of pEC50 values by fitting data to a four-parameter concentration response curve.

`CCCC[C@@H]1NC(=O)[C@H](CCC(=O)O)NC(=O)[C@@H](NC(=O)[C@H](CO)NC(=O)[C@H](Cc2ccccc2)NC(=O)[C@H](CO)NC(=O)CNC(=O)[C@H](Cc2nn[nH]n2)NC(=O)C(C)(C)C(=O)NCCc2c[nH]cn2)CCCCNC(=O)C[C@@H](C(=O)N[C@H](C(=O)N[C@@H](CC(C)C)C(=O)N[C@@H](CC(=O)O)C(=O)N[C@H]2CCC(=O)NCCCC[C@@H](C(=O)N[C@@H](CC(=O)O)C(=O)N[C@@H](Cc3ccccc3)C(=O)N[C@H](C(=O)N[C@@H](CC(N)=O)C(=O)N[C@@H](Cc3c[nH]c4ccccc34)C(=O)N[C@@H](CC(C)C)C(=O)N[C@H](C(=O)N[C@@H](CCC(N)=O)C(=O)N[C@H]3CCC(=O)NCCCC[C@@H](C(N)=O)NC(=O)[C@H]([C@@H](C)O)NC(=O)[C@H]([C@@H](C)CC)NC(=O)[C@H](CCCCN)NC3=O)[C@@H](C)CC)[C@@H](C)CC)NC(=O)[C@H](C)NC(=O)[C@H](C)NC(=O)[C@H](CCCCN)NC2=O)[C@@H](C)CC)NC(=O)[C@@H](Cc2ccccc2)NC1=O` [Example 22] ({Malonyl(2,2-Me2,histaminyl)}-[Ala(1H-tetrazol-5-yl)]GSFSKE[Nle][dF]DILDEKAAKDFINWLIQEKITK-NH2; lactam 6-10, 14-18, 27-31 (inferred); C-terminus assumed): the Emax at human GLP2 receptor came out at 104%; at mouse GLP2 receptor (setting [2]), 94.5%; on human GLP1 receptor it was 92.7%. In addition, the EC50 at human GLP2 receptor is 0.00794 nM; at mouse GLP2 receptor (setting [3]), 1.58 nM; at human GLP1 receptor it was 0.398 nM. Moreover, the fraction remaining at 0.5 h in series [1] is 6.8%.
On to `CCCC[C@H](NC(=O)[C@H](CCC(=O)O)NC(=O)[C@H](CC(=O)O)NC(=O)[C@H](CO)NC(=O)[C@H](Cc1ccccc1)NC(=O)[C@H](CO)NC(=O)CNC(=O)[C@H](CC(=O)O)NC(=O)C(C)(C)NC(=O)[C@@H](N)Cc1c[nH]cn1)C(=O)N[C@H](Cc1ccccc1)C(=O)N[C@H](C(=O)N[C@H](C(=O)N[C@@H](CC(C)C)C(=O)N[C@@H](CC(=O)O)C(=O)N[C@H]1CC(=O)NCCCC[C@@H](C(=O)N[C@@H](CC(=O)O)C(=O)N[C@@H](Cc2ccccc2)C(=O)N[C@H](C(=O)N[C@@H](CC(N)=O)C(=O)N[C@@H](Cc2c[nH]c3ccccc23)C(=O)N[C@@H](CC(C)C)C(=O)N[C@H](C(=O)N[C@@H](CCC(N)=O)C(=O)N[C@H](C(=O)N[C@@H](CCCCN)C(=O)N[C@H](C(=O)N[C@H](C(=O)N[C@@H](CC(=O)O)C(N)=O)[C@@H](C)O)[C@@H](C)CC)[C@@H](C)O)[C@@H](C)CC)[C@@H](C)CC)NC(=O)[C@H](C)NC(=O)[C@H](C)NC(=O)[C@H](CCCCN)NC1=O)[C@@H](C)CC)[C@@H](C)O` [Example 92] (H-H[Aib]DGSFSDE[Nle][dF]TILDDKAAKDFINWLIQTKITD-NH2; lactam 16-20; N-terminus and C-terminus assumed), for which the Emax came out at 99.3% at human GLP2 receptor, 98.9% on mouse GLP2 receptor (setting [2]), 94.8% on mouse GLP1 receptor (setting [4]) and 96.5% on human GLP1 receptor. For the same compound, the EC50 at human GLP2 receptor is 0.002 nM; at mouse GLP2 receptor (setting [3]), 0.0126 nM; at mouse GLP1 receptor (setting [5]) it was 10 nM; at human GLP1 receptor, 10 nM.
As for `CCCC[C@H](NC(=O)[C@H](CCC(=O)O)NC(=O)[C@H](CC(=O)O)NC(=O)[C@H](CO)NC(=O)[C@H](Cc1ccccc1)NC(=O)[C@H](CO)NC(=O)CNC(=O)[C@H](Cc1nn[nH]n1)NC(=O)C(C)(C)C(=O)NCCc1c[nH]cn1)C(=O)N[C@H](Cc1ccccc1)C(=O)N[C@H](C(=O)N[C@H](C(=O)N[C@@H](CC(C)C)C(=O)N[C@@H](CC(=O)O)C(=O)N[C@H]1CC(=O)NCCCC[C@@H](C(=O)N[C@@H](CC(=O)O)C(=O)N[C@@H](Cc2ccccc2)C(=O)N[C@H](C(=O)N[C@@H](CC(N)=O)C(=O)N[C@@H](Cc2c[nH]c3ccccc23)C(=O)N[C@@H](CC(C)C)C(=O)N[C@H](C(=O)N[C@@H](CCC(N)=O)C(=O)N[C@H](C(=O)N[C@@H](CCCCN)C(=O)N[C@H](C(=O)N[C@H](C(=O)N[C@@H](Cc2ccccc2)C(N)=O)[C@@H](C)O)[C@@H](C)CC)[C@@H](C)O)[C@@H](C)CC)[C@@H](C)CC)NC(=O)[C@H](C)NC(=O)[C@H](C)NC(=O)[C@H](CCCCN)NC1=O)[C@@H](C)CC)[C@@H](C)O` [Example 95] ({Malonyl(2,2-Me2,histaminyl)}-[Ala(1H-tetrazol-5-yl)]GSFSDE[Nle][dF]TILDDKAAKDFINWLIQTKITF-NH2; lactam 14-18; C-terminus assumed), the Emax on human GLP2 receptor came out at 102%; at mouse GLP2 receptor (setting [2]), 102%; at mouse GLP1 receptor (setting [4]) it was 94.7%; at human GLP1 receptor it was 97%. Further, the EC50 on human GLP2 receptor is 0.00794 nM; at mouse GLP2 receptor (setting [3]), 0.00794 nM; on mouse GLP1 receptor (setting [5]) it was 5.01 nM; on human GLP1 receptor, 3.98 nM.
Consider `CCCC[C@H](NC(=O)[C@H](CCC(=O)O)NC(=O)[C@H](CC(=O)O)NC(=O)[C@H](CO)NC(=O)[C@H](Cc1ccccc1)NC(=O)[C@H](CO)NC(=O)CNC(=O)[C@H](Cc1nn[nH]n1)NC(=O)C(C)(C)C(=O)NCCc1c[nH]cn1)C(=O)N[C@H](Cc1ccccc1)C(=O)N[C@H](C(=O)N[C@H](C(=O)N[C@@H](CC(C)C)C(=O)N[C@@H](CC(=O)O)C(=O)N[C@H]1CCC(=O)NCCCC[C@@H](C(=O)N[C@@H](CC(=O)O)C(=O)N[C@@H](Cc2ccccc2)C(=O)N[C@H](C(=O)N[C@@H](CC(N)=O)C(=O)N[C@@H](Cc2c[nH]c3ccccc23)C(=O)N[C@@H](CC(C)C)C(=O)N[C@H](C(=O)N[C@@H](CCC(N)=O)C(=O)N[C@H](C(=O)N[C@@H](CCCCN)C(=O)N[C@H](C(=O)N[C@H](C(=O)N[C@@H](Cc2ccccc2)C(N)=O)[C@@H](C)O)[C@@H](C)CC)[C@@H](C)O)[C@@H](C)CC)[C@@H](C)CC)NC(=O)[C@H](C)NC(=O)[C@H](C)NC(=O)[C@H](CCCCN)NC1=O)[C@@H](C)CC)[C@@H](C)O` [Example 96] ({Malonyl(2,2-Me2,histaminyl)}-[Ala(1H-tetrazol-5-yl)]GSFSDE[Nle][dF]TILDEKAAKDFINWLIQTKITF-NH2; lactam 14-18), for which the Emax on human GLP2 receptor stood at 101%; on mouse GLP2 receptor (HEK293, read-out: Mouse GLP-2R agonist cAMP Emax), 101%; on mouse GLP1 receptor (HEK293, read-out: Mouse GLP-1R agonist cAMP Emax) it was 96.1%; on human GLP1 receptor, 96.4%. Besides, the EC50 on human GLP2 receptor was 0.00631 nM; at mouse GLP2 receptor, 0.794 nM; at mouse GLP1 receptor, 0.794 nM; at human GLP1 receptor, 0.501 nM.
